Experimental data: patent publication US8785471B2, “Pharmaceutical composition containing ferulic acid and matrine compounds, the preparation and the use thereof” (Qingdao Qiyuan Bio-Technologies Co., Ltd., priority 2008, dated 2014)
Where two headings read alike, the source gives them in different places.

Experiments:
[1] = test system: patients with rash; assay: Effect on rash in patients; type: in vivo; details: 10 patients, 1% applied on rash area, after 10 minutes
Description: Patient selection: 18-25 years old of either gender with rash at both body sides. Each composition was tested on 10 patients. Test was carried out with single-blind and self control. 1% composition or control was applied on rash area at left side of the body, and physiological saline was applied on rash area at the right side. After 10 minutes, the effects were evaluated.
Effect evaluation: Obviously effective if both rash and itching feeling disappear; effective if parts of rash and itching feeling disappear; invalid if both rash and itching feeling keep unchanged.

[2] = test system: type I collagen content of hepatic stellate cells; assay: Type I collagen content of hepatic stellate cells (ELISA kit); type: cell-based, rats; details: 50 μmol/l, HSC supernatant; mean ± SD
Description: (§1) Materials and reagents: ELISA kit for rats type I collagen, trypsin, fetal bovine serum, etc.
(§2) Methods: Revived hepatic stellate cell (HSC) seeds were placed in a 100 ml plastic incubation flask and incubated in a CO2 incubator (inside 5% CO2, 95% humidity). The medium was discarded when the cells grew into a single layer. Digestion solution (5% trypsin) was added. The digestion solution was removed and centrifuged at 2200 rpm for 7 minutes. The supernatant was discarded, washed and centrifuged with DMEM incubation solution. The cells were suspended in a DMEM solution containing 20% fetal bovine serum, and the cell numbers were counted. The cell suspension was diluted with a DMEM solution and seeded in 96 well culture plate, each well having 100 μl diluted suspension. After 48 hours, the solution was removed and the cells were washed with a DMEM incubation solution containing 10% bovine serum to synchronize the cells at stable phrase. The cells were treated with testing compositions diluted in physiological saline (50 μmol/l). Each treatment tested 6 wells and repeated for 3 times. After 48 hours, incubation was terminated. […] The HSC absorbance at wavelength 570 nm was measured by microplate reader. […] The supernatant was obtained and the type I collagen content was measured according to the instructions in the type I collagen kit.

[3] = test system: mice; assay: Mice gastrointestinal motility, carbon powder propulsion; type: in vivo; details: 3 days
Description: Materials and reagents: oxymatrine injection (Xinhua Inc., batch No.: 0306003), neostigmine methylsulfate injection (Tianfu Inc., batch No.: 0404131), atropine sulfate injection (Tianfu Inc., batch No.: 0409271), morphine sulfate controlled-release tablets (Mengdi Inc., batach No.: 04082312).
Animals and feeding environment: healthy SPF grade Kunming mice, half male, weight 18-22 g, provided by Lvye Inc., certificate No.: SYXK(LU)20030020. Every 10 mice were placed in one cage. Mice feeding was provided by Shandong experimental animal center. Experimental mice fed in barrier system with filtered air, at the room temperature of 18-22° C. and humidity at 50-60%, with 12 hours light radiation per day.
Methods: The mice were intragastric administrated with testing compositions or controls for consecutive 3 days. Before the last administration, the mice were stopped feeding and supplied with water for 16 hours. 30 minutes after the last administration, the mice were intragastric administrated with 0.2 ml 5% activated carbon suspension. 20 minutes later, the mice were sacrificed by cervical dislocation. The abdominal cavity was opened and bowel was collected from pylorus to ileocecal. The bowel was placed on a tray and straightened. The total length of small intestine was measured, as well as the advanced distance of carbon powder in the intestine from pylorus. The percentage of carbon powder propulsion was calculated by the following formula: percentage of carbon powder propulsion=advanced distance of carbon powder/total length of small intestine×100%

[4] = test system: hepatic stellate cells; assay: Proliferation of hepatic stellate cells (MTT absorbance); type: cell-based, rats; details: 50 μmol/l, 48 hours, 570 nm, mean ± SD
Description: as §1, §2

[5] = test system: mice; assay: Acute toxicity in mice; type: in vivo; details: 10 mice, 72 hours
Description: Methods: Healthy mice were selected, each group containing 10 mice. The mice were intragastric administrated with testing compositions or controls once; and observed for 72 hours. The deaths were recorded.

[6] = test system: quails of fat arteriosclerosis model; assay: Anti-atherosclerosis effect, serum TC and TG in quails; type: in vivo; details: quail serum, four weeks
Description: (§3) Testing composition preparation: ferulic acid and oxymatrine were mixed in a mole ratio 1:1 to prepare a solution.
(§4) Methods: According to the method described in reference (Liu et al., 2005. Chinese journal of arteriosclerosis, 13(3): 305-308).
(§5) Test method: 140 male quails were selected and randomly separated into 7 groups: normal control group (healthy quails), modeling control group (fat arteriosclerosis model which is set up by the methods described in reference), positive control group (fat arteriosclerosis model is treated by luofatading 10 mg/kg), ferulic acid control group (tested with ferulic acid 40 mg/kg), large/medium/small dosage testing groups ([…], of testing compositions). Except the normal control group, all the other 6 groups were fat arteriosclerosis models.
(§6) The quails were daily intragastric administrated with testing compositions or controls once per day for consecutive four weeks. The fourth weekend after administration, the content of serum lipid from 10 quails of each group was detected. In the end, pathological examination was conducted on the surviving quails.
Method to detect the content of serum lipid: at the end of the 4th week after administration, feeding was stopped for 12 hours. 2 ml blood was collected from jugular vein. The serum was separated. The contents of serum cholesterol (TC) and triglyceride (TG) were measured according to an enzymatic method.

[7] = test system: mice; assay: Analgesic effect, acetic acid writhing test in mice; type: in vivo; details: intragastric 20 mg/kg for 3 days, 0.6% acetic acid ip, writhing within 15 minutes
Description: Method: Healthy mice were selected, each group containing 10 mice. The mice were intragastric administrated with 20 mg/kg testing compositions or control compositions for consecutive 3 days. 30 minutes after the last administration, the mice were intra-peritoneally (ip) injected with 10 ml/kg of 0.6% acetic acid. The writhing numbers of the mice within 15 minutes were recorded. The analgesic percentage was calculated.
Analgesic percentage(%)=(writhing numbers of blank control group−writhing numbers of testing group)/writhing numbers of blank control group×100%

[8] = test system: quails of fat arteriosclerosis model; assay: Anti-atherosclerosis effect, aortic atherosclerosis degree of quails (pathological examination); type: in vivo; design: Total atherosclerosis score: scale not given here
Description: as §3, §4, §5, §6

[9] = test system: mice; assay: Anti-inflammatory effect, xylene ear swelling in mice; type: in vivo; details: xylene on right ear, ear coated with 1% composition, 30 minutes later
Description: Healthy mice were selected, each group containing 10 mice. After weighing and marking, the right ear of the mice was contacted with xylene cotton ball for 5 seconds, leaving the left ear as control. 10 minutes after proinflammatory treatment, the right ear was coated with testing compositions (1%), control ingredients (individual ferulic acid or oxymatrine) or blank control (physiological saline). 30 minutes later, the mice was sacrificed by cervical dislocation. The same volume of tissues was collected from left ear (control) and fight ear (treated with xylene) by hole puncher (diameter: 6 mm), and weighed. The ear swelling percentage was calculated. Ear swelling percentage (%)=(Weight of right ear−Weight of left ear)/Weight of left ear×100%

[10] = target: T1, blood acetylcholinesterase (Rattus norvegicus, UniProt P37136); assay: Anticholinesterase effect on rat blood acetylcholinesterase; type: biochemical, rats
T1 construct: 0.05 ml each diluted composition was pipetted into 0.5 ml diluted rats blood; from tissue; host or cells: rat whole blood, anticoagulated, diluted 10 times with physiological saline
T1 sequence (P37136 32-614): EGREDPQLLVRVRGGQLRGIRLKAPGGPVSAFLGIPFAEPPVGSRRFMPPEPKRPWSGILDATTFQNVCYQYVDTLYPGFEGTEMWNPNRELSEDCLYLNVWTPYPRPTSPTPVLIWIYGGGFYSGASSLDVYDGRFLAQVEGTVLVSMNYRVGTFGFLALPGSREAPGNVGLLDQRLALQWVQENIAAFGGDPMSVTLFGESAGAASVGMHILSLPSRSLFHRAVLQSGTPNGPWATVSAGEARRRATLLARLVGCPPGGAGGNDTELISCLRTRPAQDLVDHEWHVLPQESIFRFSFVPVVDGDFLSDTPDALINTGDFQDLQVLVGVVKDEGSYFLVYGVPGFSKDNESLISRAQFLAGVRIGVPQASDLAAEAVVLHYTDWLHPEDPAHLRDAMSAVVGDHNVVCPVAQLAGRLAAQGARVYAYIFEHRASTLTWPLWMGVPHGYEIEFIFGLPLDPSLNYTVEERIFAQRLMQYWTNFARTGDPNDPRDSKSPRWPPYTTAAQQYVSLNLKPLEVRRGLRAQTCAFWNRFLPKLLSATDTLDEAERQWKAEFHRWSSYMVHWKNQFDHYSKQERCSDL
Description: Methods: 5 ml blood was collected from healthy rats, stored in tubes containing anticoagulants and diluted 10 times with physiological saline (ready for use). The testing compositions were diluted with physiological saline to 0, 5, 10, 20, 40, 80, 160, 320, 640 mg/l concentrations, respectively. 0.05 ml each diluted composition was pipetted into 0.5 ml diluted rats blood, mixed thoroughly and incubated at 37° C. for 1 hour. The activity of blood acetylcholinesterase was measured according to the acetylcholinesterase kit. The half inhibitory concentration (IC50) was calculated.

[11] = test system: rheumatoid arthritis patients; details: 30 patients, 200 mg tablets daily, 5 days
Description: Testing composition preparation: The gel containing ferulic acid and matrine (mole ratio 1:1) were prepared according to a pharmaceutical method.
Methods: 30 pairs of rheumatoid arthritis patients; 30 patients participating in the control group with daily administration of 200 mg naproxen tablets; 30 patients participating in the testing group with daily application on the affected parts of the testing gel containing ferulic acid and matrine. Both groups were administered for consecutive 5 days.
Effect observations: obviously effective if both swelling and aches disappear; effective if aches disappear with limited swelling; invalid if both swelling and aches exist.

## COc1cc(/C=C\C(=O)O)ccc1O [Ferulic acid, 4-hydroxy-3-methoxy cinnamic acid]
[1]
  Effective (number of patients): 3
  Invalid (number of patients): 7
[2]
  Type I collagen content: 64.36 ± 11.22 µg/L
[3]; intragastric 20 mg/kg
  Percentage of carbon powder propulsion (mean ± SD, %): 54.33 ± 10.22%
[4]
  Average absorbance: 0.42 ± 0.24
[5]; single intragastric 1000 mg/kg
  Death cases: 0
[6]; 40 mg/kg intragastric daily
  TC: 16.88 ± 6.31 mmol/L
  TG: 3.52 ± 0.73 mmol/L
[7]
  Analgesic percentage: 18.30%
[8]; 40 mg/kg
  Numbers of quails in aortic atherosclerosis degree 0: 1
  Numbers of quails in aortic atherosclerosis degree 1: 4
  Numbers of quails in aortic atherosclerosis degree 2: 6
  Numbers of quails in aortic atherosclerosis degree 3: 3
  Numbers of quails in aortic atherosclerosis degree 4: 0
  Total atherosclerosis score: 25
[9]
  Ear swelling percentage: 164.6%

## CC[C@H](C)C(=O)O[C@H]1C[C@@H](C)C=C2C=C[C@H](C)[C@H](CC[C@@H]3C[C@@H](O)CC(=O)O3)[C@H]21 [Luofatading]
[6]; 10 mg/kg intragastric daily
  TC: 10.19 ± 2.07 mmol/L
  TG: 1.68 ± 0.36 mmol/L
[8]; 10 mg/kg
  Numbers of quails in aortic atherosclerosis degree 0: 0
  Numbers of quails in aortic atherosclerosis degree 1: 6
  Numbers of quails in aortic atherosclerosis degree 2: 8
  Numbers of quails in aortic atherosclerosis degree 3: 2
  Numbers of quails in aortic atherosclerosis degree 4: 0
  Total atherosclerosis score: 28

## O=C1CCC[C@@H]2[C@H]3CCCN4CCC[C@@H](CN12)[C@@H]34 [Matrine, matrine]
[5]; single intragastric 500 mg/kg
  Death cases: 10

## CN(C)C(=O)Oc1cccc([N+](C)(C)C)c1 [Neostigmine, neostigmine]
[3]; intragastric 4 mg/kg
  Percentage of carbon powder propulsion (mean ± SD, %): 68.55 ± 4.80 %
[10]; diluted rat blood, 37° C., 1 hour, read-out: IC50 (converted)
  IC50: 1640 µM

## O=C1CCC[C@@H]2[C@H]3CCC[N+]4([O-])CCC[C@@H](CN12)[C@@H]34 (stereo partly drawn) [Oxymatrine, oxymatrine]
[1]
  Effective (number of patients): 10
[2]
  Type I collagen content: 63.42 ± 9.76 µg/L
[3]; intragastric 10 mg/kg
  Percentage of carbon powder propulsion (mean ± SD, %): 58.85 ± 13.22%
[3]; intragastric 20 mg/kg
  Percentage of carbon powder propulsion (mean ± SD, %): 67.49 ± 11.68 %
[4]
  Average absorbance: 0.39 ± 0.17
[7]
  Analgesic percentage: 29.98%
[10]
  IC50: 2780 µM
[9]
  Ear swelling percentage: 133.4%

## O=C1C=CC[C@@H]2[C@H]3CCCN4CCC[C@@H](CN12)[C@@H]34 [Sophocarpine, sophocarpine]
[5]; single intragastric 500 mg/kg
  Death cases: 10

## COc1ccc2cc([C@H](C)C(=O)O)ccc2c1 [naproxen]
[11]
  Effective cases: 11 cases
  Obviously effective cases: 12 cases
  Total effective percentage: 76.7%
